Experimental findings from patent US11020399B2, “Intermediates useful in the synthesis of compounds as modulators of protein kinases” (Rhizen Pharmaceuticals SA, priority 2011, dated 2021) are described below.

One series has as its target PI3kδ (Homo sapiens, UniProt O00329). Briefly: Fluorescent (HTRF) determination of PI3 kinase enzyme activity, PI3Kδ. To be noted: for inhibition at 0.1 µM / % inhibition (PI3kδ) 100 nM: 100 nM (Examples 60-137); for inhibition at 0.3 µM: 300 nM (Examples 1-59); for % inhibition (PI3kδ) 100 nM: 0.1 µM. It is filed as biochemical. The gist of the method:
(§1)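 Human PI3K isoforms were preincubated with compound for 10 min at room temperature in 10 mM MgCl2, 5 mM DTT, 1.38 μM PIP2, then reacted 30 min after adding 400 μM ATP stock. PIP3 was read by HTRF (665/620 nm). Percent inhibition used blank and enzyme controls; single-point testing was at 1 uM for α/β and 0.3 or 0.1 uM for γ/δ.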
In general terms: TR-FRET usually uses a lanthanide donor and a delayed reading to cut background.

In another series the target is PI3kγ (Homo sapiens, UniProt P48736). In words: Fluorescent (HTRF) determination of PI3 kinase enzyme activity, PI3Kγ. It is filed as biochemical. To be noted: for inhibition at 0.1 µM / % inhibition (PI3kγ) 100 nM: 100 nM (Examples 60-137); for inhibition at 0.3 µM: 300 nM (Examples 1-59); for % inhibition (PI3kγ) 100 nM: 0.1 µM. The gist of the method: as §1
For the next series, the target named is PI3kβ (Homo sapiens, UniProt P42338). In words: Fluorescent (HTRF) determination of PI3 kinase enzyme activity, PI3Kβ. It is filed as biochemical. To be noted: 1 uM. The gist of the method:
as §1

A further series has as its target PI3kα (Homo sapiens, UniProt P42336). In words: Fluorescent (HTRF) determination of PI3 kinase enzyme activity, PI3Kα. The following applies: 1 uM. The series is classed as biochemical. Summed up:
as §1

Each structure is given as a SMILES string. Counter-ions that a name gives are not always drawn.

Chain of PI3kγ (P48736 whole entry): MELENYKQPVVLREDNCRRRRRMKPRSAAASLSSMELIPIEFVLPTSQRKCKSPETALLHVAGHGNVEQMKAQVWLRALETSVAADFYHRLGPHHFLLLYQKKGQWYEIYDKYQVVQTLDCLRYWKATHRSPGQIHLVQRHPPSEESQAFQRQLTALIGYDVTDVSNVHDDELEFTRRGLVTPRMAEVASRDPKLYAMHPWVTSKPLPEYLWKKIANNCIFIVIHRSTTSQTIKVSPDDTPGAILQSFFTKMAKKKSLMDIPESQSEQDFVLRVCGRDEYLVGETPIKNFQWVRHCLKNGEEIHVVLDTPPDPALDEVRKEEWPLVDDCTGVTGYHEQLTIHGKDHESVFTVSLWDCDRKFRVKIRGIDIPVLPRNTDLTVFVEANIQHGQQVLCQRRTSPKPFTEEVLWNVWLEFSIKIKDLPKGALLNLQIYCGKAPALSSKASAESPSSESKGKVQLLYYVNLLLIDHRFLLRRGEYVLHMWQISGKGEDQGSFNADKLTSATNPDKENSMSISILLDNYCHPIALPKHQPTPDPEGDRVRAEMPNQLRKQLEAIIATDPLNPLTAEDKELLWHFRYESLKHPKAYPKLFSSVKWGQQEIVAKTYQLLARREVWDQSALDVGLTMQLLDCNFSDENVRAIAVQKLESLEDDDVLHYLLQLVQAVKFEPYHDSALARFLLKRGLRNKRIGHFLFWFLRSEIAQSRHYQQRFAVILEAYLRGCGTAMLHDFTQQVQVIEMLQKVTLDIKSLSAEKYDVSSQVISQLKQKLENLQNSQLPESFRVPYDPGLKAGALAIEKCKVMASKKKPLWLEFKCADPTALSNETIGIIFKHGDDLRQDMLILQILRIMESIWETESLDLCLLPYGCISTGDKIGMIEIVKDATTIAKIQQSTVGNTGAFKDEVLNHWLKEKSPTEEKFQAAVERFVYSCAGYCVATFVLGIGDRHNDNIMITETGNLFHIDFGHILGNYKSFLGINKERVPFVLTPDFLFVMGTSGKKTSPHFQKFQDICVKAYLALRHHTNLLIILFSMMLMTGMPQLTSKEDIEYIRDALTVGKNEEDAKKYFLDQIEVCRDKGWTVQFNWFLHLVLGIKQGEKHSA
Chain of PI3kα (P42336 whole entry): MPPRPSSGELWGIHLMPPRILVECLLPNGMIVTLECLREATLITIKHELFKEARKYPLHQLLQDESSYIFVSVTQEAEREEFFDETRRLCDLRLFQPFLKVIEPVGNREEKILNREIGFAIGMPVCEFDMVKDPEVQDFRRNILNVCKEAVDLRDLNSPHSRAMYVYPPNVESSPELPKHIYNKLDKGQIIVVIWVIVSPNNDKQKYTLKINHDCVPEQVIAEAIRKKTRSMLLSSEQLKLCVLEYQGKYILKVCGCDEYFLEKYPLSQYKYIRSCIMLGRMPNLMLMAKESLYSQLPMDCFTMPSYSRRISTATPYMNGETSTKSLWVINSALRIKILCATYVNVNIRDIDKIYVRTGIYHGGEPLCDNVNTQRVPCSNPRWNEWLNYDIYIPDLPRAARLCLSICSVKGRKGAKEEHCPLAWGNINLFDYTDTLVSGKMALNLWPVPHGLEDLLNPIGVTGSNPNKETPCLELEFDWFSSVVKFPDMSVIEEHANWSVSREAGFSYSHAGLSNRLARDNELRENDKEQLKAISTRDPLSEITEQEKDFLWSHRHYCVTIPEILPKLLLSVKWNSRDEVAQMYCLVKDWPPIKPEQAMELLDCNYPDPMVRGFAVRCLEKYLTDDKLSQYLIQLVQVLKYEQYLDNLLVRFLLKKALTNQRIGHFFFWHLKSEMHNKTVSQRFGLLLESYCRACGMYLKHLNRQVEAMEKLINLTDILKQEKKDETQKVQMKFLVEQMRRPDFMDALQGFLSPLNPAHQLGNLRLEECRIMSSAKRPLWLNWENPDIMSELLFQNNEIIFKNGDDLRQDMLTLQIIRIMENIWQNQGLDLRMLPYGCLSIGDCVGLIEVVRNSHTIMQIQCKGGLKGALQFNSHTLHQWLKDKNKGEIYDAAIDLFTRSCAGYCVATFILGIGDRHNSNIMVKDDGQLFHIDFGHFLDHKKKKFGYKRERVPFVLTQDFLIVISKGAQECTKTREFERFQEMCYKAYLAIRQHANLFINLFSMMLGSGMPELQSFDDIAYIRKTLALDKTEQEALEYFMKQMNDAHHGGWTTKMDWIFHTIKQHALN
Chain of PI3kα (P27986 whole entry partner): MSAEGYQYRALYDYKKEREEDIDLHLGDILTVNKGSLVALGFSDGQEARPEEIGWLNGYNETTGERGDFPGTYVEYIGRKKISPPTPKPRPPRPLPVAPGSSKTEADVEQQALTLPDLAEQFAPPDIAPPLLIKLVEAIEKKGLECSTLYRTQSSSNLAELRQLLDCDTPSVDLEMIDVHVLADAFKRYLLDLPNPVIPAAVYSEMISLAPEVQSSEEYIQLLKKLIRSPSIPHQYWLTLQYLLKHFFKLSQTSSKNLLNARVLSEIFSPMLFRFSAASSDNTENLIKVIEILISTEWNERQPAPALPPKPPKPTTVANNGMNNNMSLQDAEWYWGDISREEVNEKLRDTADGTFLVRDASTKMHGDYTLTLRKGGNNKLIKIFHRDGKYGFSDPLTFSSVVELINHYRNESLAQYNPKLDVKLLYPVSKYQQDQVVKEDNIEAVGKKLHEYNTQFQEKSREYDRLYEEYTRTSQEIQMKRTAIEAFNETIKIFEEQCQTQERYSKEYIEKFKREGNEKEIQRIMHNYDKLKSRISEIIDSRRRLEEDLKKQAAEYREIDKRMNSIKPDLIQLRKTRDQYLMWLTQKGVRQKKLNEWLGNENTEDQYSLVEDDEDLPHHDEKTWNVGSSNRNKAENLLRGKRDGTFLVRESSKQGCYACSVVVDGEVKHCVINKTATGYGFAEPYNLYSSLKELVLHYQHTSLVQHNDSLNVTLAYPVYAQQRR
Chain of PI3kβ (P42338 whole entry): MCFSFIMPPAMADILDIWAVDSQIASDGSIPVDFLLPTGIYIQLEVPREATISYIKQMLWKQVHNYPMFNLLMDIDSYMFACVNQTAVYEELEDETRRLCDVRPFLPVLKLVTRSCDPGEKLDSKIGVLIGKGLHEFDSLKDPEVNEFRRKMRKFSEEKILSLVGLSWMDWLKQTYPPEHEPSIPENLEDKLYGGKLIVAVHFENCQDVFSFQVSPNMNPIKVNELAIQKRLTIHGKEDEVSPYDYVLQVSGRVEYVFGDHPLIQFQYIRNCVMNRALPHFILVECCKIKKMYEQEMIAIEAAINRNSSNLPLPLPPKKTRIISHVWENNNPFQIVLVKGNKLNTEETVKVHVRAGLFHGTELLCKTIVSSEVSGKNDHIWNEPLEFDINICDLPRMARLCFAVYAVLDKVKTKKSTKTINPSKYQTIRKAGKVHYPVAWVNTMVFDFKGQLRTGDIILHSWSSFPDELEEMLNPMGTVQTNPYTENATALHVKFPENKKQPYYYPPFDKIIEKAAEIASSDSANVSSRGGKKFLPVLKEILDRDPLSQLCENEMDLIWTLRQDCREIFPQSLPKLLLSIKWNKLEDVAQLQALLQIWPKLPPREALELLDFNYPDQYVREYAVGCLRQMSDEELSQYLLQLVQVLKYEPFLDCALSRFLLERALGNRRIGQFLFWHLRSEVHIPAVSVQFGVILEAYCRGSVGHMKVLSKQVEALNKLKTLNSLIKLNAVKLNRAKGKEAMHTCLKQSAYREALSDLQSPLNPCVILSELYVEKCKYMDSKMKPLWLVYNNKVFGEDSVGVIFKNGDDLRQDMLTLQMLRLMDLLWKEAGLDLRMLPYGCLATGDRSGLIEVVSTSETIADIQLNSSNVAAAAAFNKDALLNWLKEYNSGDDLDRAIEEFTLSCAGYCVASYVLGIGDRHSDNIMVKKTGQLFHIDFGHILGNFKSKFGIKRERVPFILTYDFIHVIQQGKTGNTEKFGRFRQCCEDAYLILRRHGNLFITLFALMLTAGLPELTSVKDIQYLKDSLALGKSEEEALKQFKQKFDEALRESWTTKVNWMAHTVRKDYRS
Chain of PI3kβ (P27986 whole entry partner): as the sequence (P27986 whole entry partner) above
Chain of PI3kδ (O00329 whole entry, canonical isoform): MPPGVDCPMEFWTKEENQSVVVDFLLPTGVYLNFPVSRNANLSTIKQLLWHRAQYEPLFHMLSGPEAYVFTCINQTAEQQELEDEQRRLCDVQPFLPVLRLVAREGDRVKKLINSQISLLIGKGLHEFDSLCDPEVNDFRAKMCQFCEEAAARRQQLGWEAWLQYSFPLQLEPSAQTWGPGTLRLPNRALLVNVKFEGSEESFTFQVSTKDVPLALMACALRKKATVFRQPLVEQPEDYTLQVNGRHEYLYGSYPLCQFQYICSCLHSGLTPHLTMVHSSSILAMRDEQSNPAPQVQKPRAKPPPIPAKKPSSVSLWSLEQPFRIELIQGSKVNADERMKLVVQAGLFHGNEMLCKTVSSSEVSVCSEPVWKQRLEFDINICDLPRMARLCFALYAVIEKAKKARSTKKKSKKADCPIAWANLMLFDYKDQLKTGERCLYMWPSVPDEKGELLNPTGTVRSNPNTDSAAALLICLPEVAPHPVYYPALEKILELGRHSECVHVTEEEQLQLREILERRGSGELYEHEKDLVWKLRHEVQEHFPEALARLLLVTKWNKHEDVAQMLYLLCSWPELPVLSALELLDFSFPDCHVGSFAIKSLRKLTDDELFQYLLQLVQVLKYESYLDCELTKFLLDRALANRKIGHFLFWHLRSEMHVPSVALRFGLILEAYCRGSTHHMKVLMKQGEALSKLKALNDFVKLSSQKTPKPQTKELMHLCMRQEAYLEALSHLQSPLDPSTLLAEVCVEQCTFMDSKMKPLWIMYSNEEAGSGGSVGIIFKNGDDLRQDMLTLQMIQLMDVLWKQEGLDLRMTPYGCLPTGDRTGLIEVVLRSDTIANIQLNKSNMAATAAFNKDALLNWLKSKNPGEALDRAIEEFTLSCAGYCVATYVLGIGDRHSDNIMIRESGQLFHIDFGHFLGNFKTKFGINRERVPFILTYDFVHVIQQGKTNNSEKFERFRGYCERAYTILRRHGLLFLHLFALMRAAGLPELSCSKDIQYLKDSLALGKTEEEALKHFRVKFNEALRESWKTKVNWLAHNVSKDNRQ
Chain of PI3kδ (P27986 whole entry partner, canonical isoform): as the sequence (P27986 whole entry partner) above

Consider `CC(c1oc2cccc(F)c2c(=O)c1-c1cccc(F)c1)n1nc(-c2ccc3c(c2)C(=O)NC3)c2c(N)ncnc21` (centres unmarked) [Example 122, 6-(4-amino-1-(1-(5-fluoro-3-(3-fluorophenyl)-4-oxo-4H-chromen-2-yl)ethyl)-1H-pyrazolo[3,4-d]pyrimidin-3-yl)isoindolin-1-one], for which the melting point (usually the temperature of the solid-liquid transition) lay within 242 to 245 °C. For the same molecule, the inhibition – broadly, the drop in the measured response relative to a control, in per cent – at 0.1 µM at PI3kδ fell in the range of 25 to 50%. The same molecule registered an inhibition at 0.1 µM against PI3kγ of 0 to 25%.
The matching figures for `CCOc1ccc(-c2nn(C(C)c3oc4cccc(F)c4c(=O)c3-c3cccc(F)c3)c3ncnc(N)c23)cc1C(F)(F)F` (centres unmarked) [Example 132, 2-(1-(4-amino-3-(4-ethoxy-3-(trifluoromethyl)phenyl)-1H-pyrazolo[3,4-d]pyrimidin-1-yl)ethyl)-5-fluoro-3-(3-fluorophenyl)-4H-chromen-4-one]: 225 to 227 °C, 50 to 75% and 25 to 50%.
Molecule `CC(C)NC(=O)c1ccc(-c2nn(C(C)c3oc4cccc(F)c4c(=O)c3-c3cccc(F)c3)c3ncnc(N)c23)cc1F` (centres unmarked) [Example 53, 4-(4-amino-1-(1-(5-fluoro-3-(3-fluorophenyl)-4-oxo-4H-chromen-2-yl)ethyl)-1H-pyrazolo[3,4-d]pyrimidin-3-yl)-2-fluoro-N-isopropylbenzamide] registered a melting point of 254 to 257 °C. Moreover, on PI3kδ, the inhibition at 0.3 µM is 0 to 25%. The inhibition at 0.3 µM at PI3kγ was 50 to 75%.
For the molecule `Cc1ccccc1-c1c(C(C)Nc2ncnc3[nH]cnc23)oc2cccc(F)c2c1=O` (centres unmarked) [Example 138, 2-(1-(9H-purin-6-ylamino)ethyl)-5-fluoro-3-o-tolyl-4H-chromen-4-one], the melting point was in the range of 275 to 277 °C.
`CC(C)Oc1ccc(-c2nn(C(C)c3oc4cccc(F)c4c(=O)c3-c3cccc(F)c3)c3ncnc(N4CCOCC4)c23)cc1F` (racemic) [Example 116, (S)/(R)-5-fluoro-2-(1-(3-(3-fluoro-4-isopropoxyphenyl)-4-morpholino-1H-pyrazolo[3,4-d]pyrimidin-1-yl)ethyl)-3-(3-fluorophenyl)-4H-chromen-4-one] yielded a melting point of 136 to 138 °C. Further, the “% inhibition (PI3kδ) 100 nM” value at PI3kδ was “D (D=0 to 25%)”. For the same molecule, the “% inhibition (PI3kγ) 100 nM” value at PI3kγ is given as “D (D=0 to 25%)”.
Regarding `CNc1ncnc2c1ncn2C(C)c1oc2cccc(F)c2c(=O)c1-c1cccc(F)c1` (centres unmarked) (as salt: potassium) [Example 111, 5-fluoro-3-(3-fluorophenyl)-2-(1-(6-(methylamino)-9H-purin-9-yl)ethyl)-4H-chromen-4-one], the melting point was 207 to 209 °C.
Still for that read-out and setting: as for `CC(c1oc2cccc(F)c2c(=O)c1-c1cccc(F)c1)n1cnc2c(N3CCOCC3)ncnc21` (centres unmarked) (as salt: potassium) [Example 119, 5-fluoro-3-(3-fluorophenyl)-2-(1-(6-morpholino-9H-purin-9-yl)ethyl)-4H-chromen-4-one], the figure is 239 to 241 °C; as for `C[C@H](c1oc2cccc(F)c2c(=O)c1-c1cccc(F)c1)n1ncc2c(N)ncnc21` [Example 16b, (−)-2-(1-(4-amino-1H-pyrazolo[3,4-d]pyrimidin-1-yl)ethyl)-5-fluoro-3-(3-fluorophenyl)-4H-chromen-4-one], 198 to 201 °C; as for `Cc1cc(-c2nn(C(C)c3oc4cccc(F)c4c(=O)c3-c3cccc(F)c3)c3ncnc(N)c23)ccc1OC(C)C` (centres unmarked) (as salt: sodium) [Example 50, 2-(1-(4-amino-3-(4-isopropoxy-3-methylphenyl)-1H-pyrazolo[3,4-d]pyrimidin-1-yl)ethyl)-5-fluoro-3-(3-fluorophenyl)-4H-chromen-4-one], 185 to 188 °C.
Still for that read-out and setting: as for `CC(c1oc2cccc(F)c2c(=O)c1-c1cccc(F)c1)n1cnc2c(N)nc(F)nc21` (centres unmarked) (as salt: potassium) [Example 106, 2-(1-(6-amino-2-fluoro-9H-purin-9-yl)ethyl)-5-fluoro-3-(3-fluorophenyl)-4H-chromen-4-one], the figure is 255 to 258 °C.
Take `CC(c1oc2cccc(F)c2c(=O)c1-c1ccc(F)cc1)n1nc(-c2ccc(OC(F)F)c(F)c2)c2c(N)ncnc21` (centres unmarked) [Example 31, 2-(1-(4-amino-3-(4-(difluoromethoxy)-3-fluorophenyl)-1H-pyrazolo[3,4-d]pyrimidin-1-yl)ethyl)-5-fluoro-3-(4-fluorophenyl)-4H-chromen-4-one]: the inhibition at 1 µM against PI3kβ and at PI3kα was 25 to 50% each time. The inhibition at 0.3 µM at PI3kδ and against PI3kγ was 50 to 75% throughout.
For the molecule `CCC(Nc1ncnc2[nH]cnc12)c1oc2cccc(F)c2c(=O)c1-c1ccccc1` (centres unmarked) [Example 65, 2-(1-(9H-purin-6-ylamino)propyl)-5-fluoro-3-phenyl-4H-chromen-4-one], the inhibition at 1 µM at PI3kβ and against PI3kα was 25 to 50% each time. Moreover, the inhibition at 0.1 µM at PI3kδ was in the range of 0 to 25%; on PI3kγ, 50 to 75%.
On to `CC(C)Oc1ccc(-c2nn(C(C)c3oc4cccc(F)c4c(=O)c3-c3ccccc3)c3ncnc(N)c23)cc1F` (centres unmarked) [Example 13, 2-(1-(4-amino-3-(3-fluoro-4-isopropoxyphenyl)-1H-pyrazolo[3,4-d]pyrimidin-1-yl)ethyl)-5-fluoro-3-phenyl-4H-chromen-4-one], for which the “% inhibition (PI3kβ) 1 uM” value at PI3kβ is “D (D=0 to 25%)”. At PI3kδ, the IC50 (as a rule, the midpoint of a concentration-inhibition curve) was at most 50 nM and the inhibition at 0.3 µM lay within 75 to 100%. Also, at PI3kα, the “% inhibition (PI3kα) 1 uM” value was “D (D=0 to 25%)”. The inhibition at 0.3 µM against PI3kγ was in the range of 50 to 75%.
`CC(c1oc2cccc(F)c2c(=O)c1-c1ccccc1)n1nc(-c2ccc(OC(F)F)c(F)c2)c2c(N)ncnc21` (centres unmarked) [Example 32, 2-(1-(4-amino-3-(4-(difluoromethoxy)-3-fluorophenyl)-1H-pyrazolo[3,4-d]pyrimidin-1-yl)ethyl)-5-fluoro-3-phenyl-4H-chromen-4-one]: the “% inhibition (PI3kβ) 1 uM” value at PI3kβ is recorded as “B (B=>50 to 75%)”. The inhibition at 0.3 µM fell in the range of 0 to 25% on PI3kδ and 50 to 75% on PI3kγ. Also, the “% inhibition (PI3kα) 1 uM” value on PI3kα was “D (D=0 to 25%)”.
With `Cc1cc(-c2nn(C(C)c3oc4cccc(F)c4c(=O)c3-c3cccc(F)c3)c3ncnc(N)c23)ccc1OC(C)C` (single isomer, unassigned; (-)) [Example 115, (−) 2-(1-(4-amino-3-(4-isopropoxy-3-methylphenyl)-1H-pyrazolo[3,4-d]pyrimidin-1-yl)ethyl)-5-fluoro-3-(3-fluorophenyl)-4H-chromen-4-one], the “% inhibition (PI3kβ) 1 uM” value on PI3kβ is reported as “D (D=0 to 25%)”. Moreover, at PI3kδ, the “% inhibition (PI3kδ) 100 nM” value was “C (C=>25 to 50%)”. Also, the “% inhibition (PI3kα) 1 uM” value on PI3kα is “C (C=>25 to 50%)”. For the same molecule, at PI3kγ, the “% inhibition (PI3kγ) 100 nM” value was “C (C=>25 to 50%)”.
As for `CC(c1oc2cccc(F)c2c(=O)c1-c1cccc(F)c1)n1nc(-c2cc3ccccc3o2)c2c(N)ncnc21` (centres unmarked) [Example 14, 2-(1-(4-amino-3-(benzofuran-2-yl)-1H-pyrazolo[3,4-d]pyrimidin-1-yl)ethyl)-5-fluoro-3-(3-fluorophenyl)-4H-chromen-4-one], the inhibition at 1 µM fell in the range of 0 to 25% at PI3kβ and 25 to 50% against PI3kα. The IC50 on PI3kδ and on PI3kγ was 50 to 100 nM in each case. Besides, the inhibition at 0.3 µM at PI3kδ and against PI3kγ was 75 to 100% throughout.
For the molecule `CSc1nn(C(C)c2oc3cccc(F)c3c(=O)c2-c2cccc(F)c2)c2ncnc(N)c12` (centres unmarked) [Example 41, 2-(1-(4-amino-3-(methylthio)-1H-pyrazolo[3,4-d]pyrimidin-1-yl)ethyl)-5-fluoro-3-(3-fluorophenyl)-4H-chromen-4-one], the inhibition at 1 µM against PI3kβ and at PI3kα was 25 to 50% throughout. The inhibition at 0.3 µM at PI3kδ and against PI3kγ was 50 to 75% throughout.
Consider `CC(c1oc2cccc(F)c2c(=O)c1-c1ccc(F)cc1)n1cnc2c(N)nc(F)nc21` (centres unmarked) [Example 107, 2-(1-(6-amino-2-fluoro-9H-purin-9-yl)ethyl)-5-fluoro-3-(4-fluorophenyl)-4H-chromen-4-one], for which the inhibition at 1 µM against PI3kβ was in the range of 25 to 50%; against PI3kα, 0 to 25%. Moreover, the inhibition at 0.1 µM is 0 to 25% at PI3kδ and 25 to 50% on PI3kγ.
As for `CC(C)Oc1ccc(-c2nn(C(C)c3oc4cccc(F)c4c(=O)c3-c3ccc(F)cc3)c3ncnc(N)c23)cc1F` (centres unmarked) [Example 12, 2-(1-(4-amino-3-(3-fluoro-4-isopropoxyphenyl)-1H-pyrazolo[3,4-d]pyrimidin-1-yl)ethyl)-5-fluoro-3-(4-fluorophenyl)-4H-chromen-4-one], the “% inhibition (PI3kβ) 1 uM” value on PI3kβ is “C (C=>25 to 50%)”. Further, the inhibition at 0.3 µM against PI3kδ fell in the range of 25 to 50%. Besides, the “% inhibition (PI3kα) 1 uM” value on PI3kα was “D (D=0 to 25%)”. Moreover, at PI3kγ, the IC50 fell in the range of 100 to 300 nM and the inhibition at 0.3 µM lay in the range of 75 to 100%.
For `Cc1n[nH]c2cc(-c3nn([C@H](C)c4oc5cccc(F)c5c(=O)c4-c4cccc(F)c4)c4ncnc(N)c34)ccc12` [Example 9b, (−)-2-(1-(4-amino-3-(3-methyl-1H-indazol-6-yl)-1H-pyrazolo[3,4-d]pyrimidin-1-yl)ethyl)-5-fluoro-3-(3-fluorophenyl)-4H-chromen-4-one], the inhibition at 1 µM was in the range of 25 to 50% at PI3kβ and 0 to 25% on PI3kα. Besides, the IC50 against PI3kδ and at PI3kγ was 300 to 500 nM each time.
At PI3kβ, `CC(c1oc2cccc(F)c2c(=O)c1-c1cccc(F)c1)n1cnc2c(N(C)C)ncnc21` (centres unmarked) [Example 110, 2-(1-(6-(dimethylamino)-9H-purin-9-yl)ethyl)-5-fluoro-3-(3-fluorophenyl)-4H-chromen-4-one] had an inhibition at 1 µM of 25 to 50%. Also, on PI3kδ, the IC50 was at most 50 nM and the “% inhibition (PI3kδ) 100 nM” value is on record as “A (A=>75 to 100%)”. This molecule also registered an inhibition at 1 µM at PI3kα of 0 to 25%. Also, at PI3kγ, the IC50 is 50 to 100 nM and the “% inhibition (PI3kγ) 100 nM” value is on record as “B (B=>50 to 75%)”.
